Where two headings read alike, the source gives them in different places.
Columns and labels:
[1] = test system: cisplatin-sensitive cells (A2780); assay: MTT cytotoxicity assay, A2780 cells; type: cell-based, human
[2] = test system: HeLa cervical adenocarcinoma cells; assay: MTT cytotoxicity assay, HeLa cells; type: cell-based, human
[3] = test system: cisplatin-resistant ovarian carcinoma cells (A2780CP70); assay: MTT cytotoxicity assay, A2780CP70 cells; type: cell-based, human
A549 cells [4] = assay: Immunoblotting analysis of treated A549 cells; type: cell-based, human; conditions: for cleaved caspases 7 and 9: 50-500 nM for 72 h; for FADD and cleaved caspase 8 expression: increasing concentration; for overall expression level of RIP1 and RIP3: increasing dosages
Protocol: In order to determine the cell-killing mechanism of 1 and 2, cytotoxicity studies in the presence of apoptosis and necrosis inhibitors were conducted. […] The possibility that 1 and 2 induce necroptosis was then investigated. Necroptosis is a well-regulated mode of cell death that is different from unregulated necrosis and apoptosis. Unlike unregulated necrosis, which can be induced by H2O2 or heat, necroptosis generally involved the interaction of protein kinases, RIP1 and RIP3, to initiate cell disintegration. This process can be blocked by necrostatin-1, a potent RIP1 kinase inhibitor. To determine whether 1 and 2 induced necroptosis and/or uncontrolled necrosis, cytotoxicity studies were conducted in the presence of necrostatin-1 (60 μM) and IM-54 (10 μM), an inhibitor of H2O2-induced necrosis. […] Therefore, 1- and 2-induced cell death relies on RIP1-RIP3 complex formation and not on the expression levels of the individual protein kinases. RIP1 can also form a cytosolic complex with Fas-associated death domain (FADD) and caspase 8, known as a ripoptosome, to initiate apoptosis (through caspase 8 cleavage).
(§1) (PARP-1). PARP-1 is a nuclear enzyme that is involved in DNA repair and transcriptional regulation. DNA damage can trigger PARP-1 activity, resulting in ATP and NAD depletion and bioenergetics- mediated cell death. To determine whether PARP-1 activity is a factor in 1- and 2-mediated cell death, cytotoxicity assays were conducted with wild-type mouse embryonic fibroblast cells (MEFs PARP-1+/+) and the corresponding PARP-1-null cells (MEFs PARP-1−/−). […] Recently, p53 has also been reported to play a role in necroptosis. p53 induces cathepsin Q, a lysosomal protease that cooperates with ROS to execute necrosis. To investigate whether p53 might play a role in 1- and 2-mediated necroptosis, cytotoxicity studies were conducted with HCT116 p53^+/+ nd HCT116 p53^−/− cells.
Immunoblotting Analysis. A549 cells (1.5×10^6 cells/well) grown in six-well plates were incubated with 1 and 2 (concentrations, sub-μM) for 72 h at 37° C. Cells were washed with PBS, scraped into SDS-PAGE loading buffer (64 mM Tris-HCl (pH 6.8)/9.6% glycerol/2% SDS/5% /1-mercaptoethanol/0.01% Bromophenol Blue), and incubated at 95° C. for 10 min. Whole cell lysates were resolved by 4-20% sodium dodecyl sulfate polyacylamide gel electrophoresis (SDS-PAGE; 200 V for 25 min), followed by electro-transfer to polyvinylidene difluoride membrane (350 mA for 1 h). Membranes were blocked in 5% (w/v) non-fat milk in PBST (PBS/0.1% Tween 20) and incubated with the appropriate primary antibodies (Cell Signalling Technology and Santa Cruz). After incubation with horseradish peroxidase-conjugated secondary antibodies (Cell Signalling Technology), immuno complexes were detected with the ECL detection reagent (BioRad) and analyzed using an Alpha Innotech Chemilmager 5500 instrument fitted with a chemiluminescence filter.

U2OS = assay: MTT cytotoxicity assay, U2OS cells; type: cell-based, human
[5] = test system: MCF-7 (breast adenocarcinoma); assay: MTT cytotoxicity assay, MCF-7 cells; type: cell-based, human; conditions: Table 2; cisplatin-resistant cell line; 72 h exposure
C57BL/6 mice = assay: In vivo acute toxicity in mice; conditions: single i.p. doses 3-36 mg/kg in saline, monitored 6 days
Protocol: In Vivo Toxicity and Stability in Whole Human Blood. Given the impressive in vitro data acquired for 1 and 2, an in vivo study was conducted with C57BL/6 mice to determine acute toxicity and possible side effects. Single doses of 1 and 2 (3, 7, 11,15, 20, and 36 mg/kg) in saline were administered by intraperitoneal injection. The mice were then monitored for signs of pain, distress, and weight loss for 6 days post-treatment. […] The pharmacological toxicity profile of 1 and 2 is very appealing in terms of further preclinical studies.

[6] = test system: HCT116 p53+/+ and HCT116 p53−/− cells; assay: Cytotoxicity in HCT116 p53+/+ versus p53-/- cells; type: cell-based; conditions: 72 h, FIG. 3B
Protocol: as §1
Cell Cycle Analysis. To gain a more complete understanding of the cellular response evoked, DNA-flow cytometric studies were conducted to determine the effect of 1 and 2 on the cell cycle. A549 cells were treated with 1 or 2 (2 μM), and the cell cycle was determined over the course of 72 h. […] Upon further incubation (72 h), large populations of cell debris were detected (32%), indicative of cell death. […]
Cytotoxicity MTT Assay. […] The absorbance of the solution wells was read at 550 nm. Absorbance values were normalized to DMSO-containing control wells and plotted as the concentration of test compound versus % cell viability. […]

A549 cells [7] = assay: Cytotoxicity in the presence of cell death inhibitors, A549 cells; type: cell-based, human; conditions: for effect of co-treatment with IM-54 on toxicity: IM-54 10 μM, FIG. 1B; for effect of co-incubation with necrostatin-1 on toxicity, A549: necrostatin-1 60 μM, t test p<0.05, FIG. 1B
Protocol: In order to determine the cell-killing mechanism of 1 and 2, cytotoxicity studies in the presence of apoptosis and necrosis inhibitors were conducted. […] The possibility that 1 and 2 induce necroptosis was then investigated. […] To determine whether 1 and 2 induced necroptosis and/or uncontrolled necrosis, cytotoxicity studies were conducted in the presence of necrostatin-1 (60 μM) and IM-54 (10 μM), an inhibitor of H2O2-induced necrosis.
Cytotoxicity MTT Assay. […] Cells (2×10^3 cells/well) were seeded in a 96-well plate. […] 1 and 2 were prepared as 10 mM solutions in DMSO and diluted using media. The final concentration of DMSO in each well was 0.5%, and this amount was also present in the untreated control. After 72 h, the medium was removed, 200 μL of a 0.4 mg/mL solution of MTT in DMEM, RPMI, or McCoy's 5A was added, and the plate was incubated for an additional 1-2 h. The DMEM/MTT, RPMI/MTT, or McCoy's 5A/MTT mixture was aspirated, and 200 μL of DMSO was added to dissolve the resulting purple formazan crystals. The absorbance of the solution wells was read at 550 nm. Absorbance values were normalized to DMSO-containing control wells and plotted as the concentration of test compound versus % cell viability. IC50 values were interpolated from the resulting dose-dependent curves. The reported IC50 values are the average from at least three independent experiments, each of which consisted of six replicates per concentration level.
For specific cell death inhibitor assays, inhibitors of necroptosis (necrostatin-1, 60 μM), H2O2-induced necrosis (IM-54, 10 μM), and apoptosis (v-VAD-FMK, 5 μM) were added to cells and incubated for 1 h prior to treatment with the test compounds.

[8] = test system: PC-3 (prostate adenocarcinoma); assay: MTT cytotoxicity assay, PC-3 cells; type: cell-based, human; conditions: Table 2; cisplatin-resistant cell line; 72 h exposure
[9] = Table 1, 72 h exposure, ± standard deviation, read-out: IC50 A2780 ovarian carcinoma
[10] = Table A, average of three independent determinations, read-out: IC50 A2780 (ovarian)
[11] = Table 1, 72 h exposure, ± standard deviation, read-out: IC50 HeLa cervical adenocarcinoma
[12] = Table A, average of three independent determinations, read-out: IC50 HeLa (cervical)
[13] = Table 1, 72 h exposure, ± standard deviation, read-out: IC50 A2780CP70 ovarian carcinoma
[14] = Table A, average of three independent determinations, read-out: IC50 A280CP70 (ovarian)
[15] = Table 1, 72 h exposure, ± standard deviation, read-out: IC50 U2OS bone osteosarcoma
[16] = Table A, average of three independent determinations, read-out: IC50 U2OS (bone)

Compound	IC50 [1, 9] [µM]	IC50 [1, 10] [µM]	IC50 [2, 11] [µM]	IC50 [2, 12] [µM]	IC50 [3, 13] [µM]	IC50 [3, 14] [µM]	markers of DNA damage, phosphorylated H2AX (γH2AX) and CHK2 (A549 cells [4])	cleaved caspases 7 and 9 (A549 cells [4])	FADD and cleaved caspase 8 expression (A549 cells [4])	overall expression level of RIP1 and RIP3 (A549 cells [4])	IC50 (U2OS; [15]) [µM]	IC50 (U2OS; [16]) [µM]	IC50 [5] [µM]	acute toxicity in mice, gauged by weight loss (C57BL/6 mice)	potency in HCT116 p53+/+ compared with HCT116 p53−/− [6]	effect of co-treatment with IM-54 on toxicity (A549 cells [7])	effect of co-incubation with necrostatin-1 on toxicity, A549 (A549 cells [7])	IC50 [8] [µM]
C[O][Re](=[O])([Cl])[Cl].c1ccc(-c2ccnc3c2ccc2c(-c4ccccc4)ccnc23)cc1 [Compound 1, [ReO(OMe)(4,7-diphenyl-1,10-phenanthroline)-Cl2]]	0.67 ± 0.04	0.67 ± 0.04	0.445 ± 0.004	0.445	0.042 ± 0.015	0.042 ± 0.015	did not up-regulate	not detected	remained unaltered	remained unchanged	0.274 ± 0.006	0.274 ± 0.006	0.285 ± 0.035	no toxicity	statistically similar	did not significantly affect the toxicity	markedly decreased the toxicity	0.27 ± 0.014
C[O][Re-2]1(=[O])([Cl])([Cl])[n+]2cc(C)c(C)c3ccc4c(C)c(C)c[n+]1c4c32 [Compound 2, [ReO(OMe)(3,4,7,8-tetramethyl-1,10-phenanthroline)Cl2]]	0.15 ± 0.01	0.15 ± 0.01	0.695 ± 0.021	0.695 ± 0.021	0.056 ± 0.002	0.056 ± 0.002	did not up-regulate	not detected	remained unaltered	remained unchanged	0.209 ± 0.031	0.209 ± 0.031	0.805 ± 0.021	no toxicity	statistically similar	did not significantly affect the toxicity	markedly decreased the toxicity	0.78 ± 0.01

— patent US20150299233A1, “COMPOSITIONS AND METHODS COMPRISING RHENIUM FOR THE TREATMENT OF CANCERS” (Massachusetts Institute of Technology, priority 2014, published 2015)
